# Measured values as given in article PMC4057736, “In Vitro Antiprotozoal Activity of Abietane Diterpenoids Isolated from Plectranthus barbatus Andr” (International Journal of Molecular Sciences, 2014).
# Entries after “also recorded” stand apart in the source; their conditions may differ. Like-named read-outs stand apart in the source and are kept apart here.
# Columns and labels:
# [1] = tested on: Trypanosoma brucei Squib-427 strain (suramin-sensitive) trypomastigotes; experiment: Antitrypanosomal activity, resazurin readout; format: cell-based; settings: for IC50: Trypanosoma brucei, 72 h, read-out: T. brucei IC50; for T. brucei SI (selectivity index): versus MRC-5 cytotoxicity
# Experimental: (§1) The integrated panel of microbial screens and standard screening methodologies were adopted as previously described. All assays were performed in triplicate, at the Laboratory of Microbiology, Parasitology and Hygiene at the University of Antwerp, Belgium. […] The selectivity antiprotozoal potential was assessed by simultaneous evaluation of cytotoxicity on a fibroblast (MRC-5) cell line.
# (§2) About 1.5 × 10^4 trypomastigotes/well were added to each well and parasite growth was assessed after 72 h at 37 °C by adding resazurin [30]. […] The color reaction was read at 540 nm after 4 h and absorbance values were expressed as a percentage of the blank controls.
# [2] = Cytotoxicity assay (resazurin); format: cell-based; settings: human, MRC-5 cells
# Experimental: as §1
# For the assay, 10^4 MRC-5 cells/well were seeded onto the test plates containing the pre-diluted sample and incubated at 37 °C and 5% CO2 for 72 h. Cell viability was assessed fluorimetrically after 4 h of addition of resazurin. Fluorescence was measured (excitation 550 nm, emission 590 nm) and the results were expressed as % reduction in cell viability compared to control.
# [3] = tested on: L.infantum MHOM/MA(BE)/67 amastigotes; experiment: Antileishmanial activity, intracellular amastigotes in primary peritoneal mouse macrophages; format: cell-based, Leishmania infantum; settings: for IC50: Leishmania infantum, Macrophage, 120 h, read-out: L. infantum IC50
# Experimental: as §1
# L.infantum MHOM/MA(BE)/67 amastigotes were collected from the spleen of an infected donor hamster and used to infect primary peritoneal mouse macrophages. To determine in vitro antileishmanial activity, 3 × 10^4 macrophages were seeded in each well of a 96-well plate. After 2 days outgrowth, 5 × 10^5 amastigotes/well were added and incubated for 2 h at 37 °C. Pre-diluted plant extracts were subsequently added and the plates were further incubated for 5 days at 37 °C and 5% CO2. Parasite burdens (mean number of amastigotes/macrophage) were microscopically assessed after Giemsa staining, and expressed as a percentage of the blank controls without plant extract.
# [4] = tested on: T. cruzi Tulahuen CL2 (benznidazole-sensitive); experiment: Antitrypanosomal activity (Chagas), β-galactosidase readout on MRC-5 cells; format: cell-based, Trypanosoma cruzi; settings: for IC50: Trypanosoma cruzi, MRC5, 168 h, read-out: T. cruzi IC50
# Experimental: as §1, §2
# [5] = tested on: Chloroquine-resistant P. falciparum 2/K 1-strain (erythrocytic schizonts); experiment: Antiplasmodial activity (Malstat method); format: cell-based, Plasmodium falciparum; settings: for IC50: Plasmodium falciparum, 72 h, read-out: P. falciparum IC50
# Experimental: as §1
# Chloroquine-resistant P. falciparum 2/K 1-strain was cultured in human erythrocytes O^+ at 37 °C under a low oxygen atmosphere (3% O2, 4% CO2, and 93% N2) in RPMI-1640, supplemented with 10% human serum. Infected human red blood cells (200 μL, 1% parasitaemia, 2% haematocrit) were added to each well and incubated for 72 h. After incubation, test plates were frozen at −20 °C. Parasite multiplication was measured by the Malstat method.
# [6] = tested on: all protozoa species (P. falciparum, L. infantum, T. cruzi, T. brucei); experiment: Antiprotozoal activity, statement pooled over all protozoa species tested; format: cell-based; settings: for IC50: pooled over P. falciparum, L. infantum, T. cruzi, T. brucei, read-out: IC50 against all protozoa species
# Experimental: as §1
# [7] = MRC-5 SV2 cells (fibroblast cell line)
# [8] = intracellular amastigotes in mouse macrophages, 5 days
# [9] = Tulahuen CL2 on MRC-5 cells, 7 days
# [10] = chloroquine-resistant 2/K 1-strain
Structure (SMILES),"IC50 at 72 h [2, 7] [µM]","IC50 [3, 8] [µM]","IC50 [4, 9] [µM]","IC50 [5, 10] [µM]",IC50 [6] [µM],IC50 ([1]; Squib-427 trypomastigotes) [µM],also measured
"Nc1nc(N)nc(Nc2ccc([As]3SCC(CO)S3)cc2)n1 (stereo not shown) [Melarsoprol, reference compound]",,,,,,,IC50 [1]: 0.005 ± 0.001 µM
"CC(C)C1=CC2=CC(=O)[C@H]3C(C)(C)CCC[C@]3(C)C2=C(O)C1=O [Compound (3), taxodione]",22.6 ± 1.3,25.7 ± 2.3,25.7 ± 2.3,8.5 ± 0.7,6 to 31.6,9.8 ± 0.7,P. falciparum SI (selectivity index) ([5]; versus MRC-5 cytotoxicity): 2.6; T. brucei SI (selectivity index) [1]: 2.3
"CC/C(=C(\c1ccccc1)c1ccc(OCCN(C)C)cc1)c1ccccc1 [Tamoxifen, reference compound]",10.5 ± 2.5,,,,,,
"CC(C)c1cc2c(c(O)c1O)C13CCCC(C)(C)C1C(O)C2OC3 (stereo not drawn) [Compound (5), 6α,11,12,-trihydroxy-7β,20-epoxy-8,11,13-abietatriene]",5.7 ± 0.9,24.4 ± 3.2,24.4 ± 3.2,31.6 ± 1.9,6 to 31.6,15.9 ± 1.4,
"CC(C)C1=CC2=C(O)C(O)=C3C(C)(C)CCC[C@]3(C)C2=C(O)C1=O [Compound (2), 5,6-didehydro-7-hydroxy-taxodone]",96.2 ± 5.8,,,,,1.9 ± 0.4,IC50 [3]: 25.7 ± 1.5 µM; IC50 ([4]; TULAHUEN): 25.7 ± 1.5 µM; IC50 [5]: 9.2 ± 0.6 µM
"CCN(CC)CCCC(C)Nc1ccnc2cc(Cl)ccc12 (stereo not shown) [Chloroquine, reference compound]",,,,,,,IC50 [5]: 0.04 ± 0.01 µM
"CC(C)c1cc2c(c(O)c1O)C13CCCC(C)(C)C1CC2OC3 (stereo not shown) [Compound (4), 20-deoxocarnosol]",,25.6 ± 1.2,25.6 ± 1.2,11.1 ± 0.6,6 to 31.6,6 ± 0.8,IC50 at 72 h [2]: 6 ± 0.3 µM
"O=C(Cn1ccnc1[N+](=O)[O-])NCc1ccccc1 [Benznidazole, reference compound]",,,2.5 ± 0.6,,,,
"CCCCCCCCCCCCCCCCOP(=O)([O-])OCC[N+](C)(C)C [Miltefosine, reference compound]",,2.4 ± 0.8,,,,,
"CC(C)c1ccc2c(c1)CC[C@H]1C(C)(C)CCC[C@]21C [Compound (1), dehydroabietane]",> 237,> 237,> 237,124 ± 4.7,> 100,> 237,L. infantum SI (selectivity index) ([3]; versus MRC-5 cytotoxicity): > 1; T. cruzi SI (selectivity index) ([4]; versus MRC-5 cytotoxicity): >1; antiprotozoal activity (in words) ([6]; overall verdict over all protozoa tested): no activity against all protozoal strains; also recorded: no antiprotozoal potential; T. brucei SI (selectivity index) [1]: >1
